In patent US20230172940A1, “METHODS OF EXTENDING LIFESPAN BY ADMINISTERING FERROPTOSIS INHIBITORS” (COLLABORATIVE MEDICINAL DEVELOPMENT, LLC, priority 2020, published 2023):

What was measured:
[1] = system: dead cells within live C. elegans; assay: Visualization of cell death with propidium iodide; type: in vivo, Caenorhabditis elegans; settings: for cell death (propidium iodide), preceding organismal death: aged cohorts or young animals treated with DEM, 4-day old and 6 and 8 day old adults; for cell death (animals with any dead cells): at 6 and 8 days of age
Method: The red-fluorescent propidium iodide (PI)^o was used to visualize dead cells within live C. elegans after DEM treatment and during aging. Populations were incubated for 24 h at 25° C. with PI (a 10 μL volume of 0.25 mg/mL solution added to the bacterial lawn on 50 mm NGM plates) prior to the described age or with concurrent exposure to 10 mM DEM (as described above) and PI. For aging experiments^o animals were visualized at Day 6 and Day 8. Cohorts of live animals (i.e. showing spontaneous or touch-provoked movement) were isolated and mounted under glass coverslips on 2% agarose pads without anesthetic. Imaging were captures with on a Leica DMI3000B inverted microscope^o DsRed filter set and a DFC 3000G digital.
Differences between the proportion of live animals with fluorescently labelled nuclei in control versus Lip-1 and SIH treatment, either aged or exposed to DEM, were compared using a z-test.

iron = assay: X-ray fluorescence microscopy, elemental mapping of iron; type: in vivo, Caenorhabditis elegans; parameters: areal density of iron, Mean Diff. / total body iron, 75% Percentile / total body iron, Maximum / total body iron, Mean / total body iron, Minimum / total body iron, 25% Percentile / total body iron, Median / total body iron, Mean Diff.: unit not given here; settings: for areal density iron, 25% Percentile / areal density iron, 75% Percentile / areal density iron, Maximum / areal density iron, Mean / areal density iron, Median / areal density iron, Minimum / total body iron, 25% Percentile / total body iron, 75% Percentile / total body iron, Maximum / total body iron, Mean / total body iron, Median / total body iron, Minimum: 250 μM SIH or 200 μM Lip-1; for areal density of iron with aging: Tables 11 and 12; for total body iron, 25% Percentile / total body iron, 75% Percentile / total body iron, Maximum / total body iron, Mean / total body iron, Median / total body iron, Minimum: per worm
Method: Specimens were prepared for XFM using previously described protocols. Briefly, adult C. elegans were removed from NGM, washed four times in excess S-basal (0.1 M NaCl; 0.05 M KHPO4 at pH 6.0), briefly in ice-cold 18 MΩ resistant de-ionized H2O (Millipore) and twice in ice-cold CH3COONH4 (1.5% w/v). Samples were transferred onto 0.5 μm-thick silicon nitride (Si3N4) window (Silson), excess buffer wicked away and then the slide was frozen in liquid nitrogen (N2)-chilled liquid propane using a KF-80 plunge freezer (Leica Microsystems). The samples were lyophilised overnight at −40° C. and stored under low vacuum until required.
The distribution of metals was mapped at the X-ray Fluorescence Microscopy beamline at the Australian Synchrotron using the Maia detector system. The distribution of elements with atomic number<37 were mapped using an incident beam of 15.6 keV X-rays. This incident energy allowed clear separation of X-ray fluorescence (XRF) peaks from the relatively intense elastic and inelastic scatter. The incident beam (^˜1.71×10^9 photons s^−1) was focussed to approximately 2×2 μm^2(H×V, FWHM) in the sample plane and the specimen was continuously scanned through focus (1 mm sec^−1). The resulting XRF was binned in 0.8 jim intervals in both the horizontal and vertical giving virtual pixels spanning 0.64 jim^2 of the specimen probed with a dwell time of […]. XRF intensity was normalized to the incident beam flux monitored with a nitrogen filled ionization chamber with a 27 cm path length placed upstream of the focusing optics. Three single-element thin metal foils of known areal density (Mn 18.9 jig cm^−2, Fe 50.1 jig cm^−2 and Pt 42.2 jig cm^−2, Micromatter, Canada) were used to calibrate the relationship between fluorescence flux at the detector and elemental abundance. Dynamic Analysis, as implemented in GeoPIXE 7.3 (CSIRO), was used to deconvolve the full XRF spectra at each pixel in the scan region to produce quantitative elemental maps. This procedure includes a correction for an assumed specimen composition and thickness, in this case 30 jim of cellulose. Though unlikely to exactly match the actual sample characteristics, deviations from these assumptions are not significant for the results presented in this study as the effects of beam attenuation and self-absorption on calcium and iron XRF are negligible for a dried specimen of this type and size.
Analysis of elemental XRF maps was performed using a combination of tools native to GeoPIXE and ImageJ. Incident photons inelastically scattered (Compton scatter) from the sample detail the extent and internal structure of individual C. elegans. The differential scattering power of the specimens and substrate allowed individual animals (or parts thereof) to be identified as regions of interest (ROI) facilitating analysis of elemental content on a ‘per worm’ basis. This segmentation of each elemental map was achieved using the histogram of pixel intensities from Compton maps to locate the clusters within the image. ROIs composed of <10,000 pixels were deemed to be so small that their elemental content was not reflective of the elemental content of whole animals and so these were excluded from the analysis. The ‘non-worm’ region of each scan was used to calculate the value specimen elemental content was distinguishable from background noise, i.e. the critical value. The background corrected elemental maps were used to establish the areal densities and the total mass of each element associated with individual ROIs.

[2] = Day 4 Control vs. Day 4 treated (control minus treated)
[3] = Day 4 treated vs. Day 8 treated, same treatment
[4] = Day 8 Control vs. Day 8 treated (control minus treated)

Row | SMILES | cell death (propidium iodide), preceding organismal death [1] | cell death (animals with any dead cells) [1] | areal density iron, 25% Percentile (iron; Day 4) [pg μm^−2] | areal density iron, 75% Percentile (iron; Day 4) [pg μm^−2] | areal density iron, Maximum (iron; Day 4) [pg μm^−2] | areal density iron, Mean (iron; Day 4) [pg μm^−2] | areal density iron, Median (iron; Day 4) [pg μm^−2] | areal density iron, Minimum (iron; Day 4) [pg μm^−2] | areal density of iron, Mean Diff. (iron; [2]) | total body iron, Mean Diff. (iron; [2]) | areal density of iron, Mean Diff. (iron; [3]) | total body iron, Mean Diff. (iron; [3]) | areal density iron, 25% Percentile (iron; Day 8) [pg μm^−2] | areal density iron, 75% Percentile (iron; Day 8) [pg μm^−2] | areal density iron, Maximum (iron; Day 8) [pg μm^−2] | areal density iron, Mean (iron; Day 8) [pg μm^−2] | areal density iron, Median (iron; Day 8) [pg μm^−2] | areal density iron, Minimum (iron; Day 8) [pg μm^−2] | areal density of iron, Mean Diff. (iron; [4]) | total body iron, Mean Diff. (iron; [4]) | other results
1 | O=C(N/N=C/c1ccccc1O)c1ccncc1 [SIH, Salicylaldehyde isonicotinoyl hydrazone] | significantly attenuated | completely suppressed | 298.3 | 357.3 | 412.1 | 321.8 | 304.4 | 267.1 | 344.4 | 57.71 | −112.9 | −70.26 | 381.9 | 501.9 | 558 | 434.7 | 408.9 | 324.2 | 385.6 | 15.8 | areal density of iron, Mean Diff. (iron; Day 4 SIH vs. Day 4 Lip-1): −376.6; total body iron, Mean Diff. (iron; Day 4 SIH vs. Day 4 Lip-1): −44.97; total iron load (iron; Day 8): on par with the untreated control group; areal density of iron, Mean Diff. (iron; Day 8 SIH vs. Day 8 Lip-1): −389.9; total body iron, Mean Diff. (iron; Day 8 SIH vs. Day 8 Lip-1): −26.49; areal density of iron with aging (iron): dramatically reduced; total body iron, 25% Percentile (iron; Day 4): 61.28; total body iron, 75% Percentile (iron; Day 4): 71.8; total body iron, Maximum (iron; Day 4): 98.92; total body iron, Mean (iron; Day 4): 68.37; total body iron, Median (iron; Day 4): 66.78; total body iron, Minimum (iron; Day 4): 41.07; total body iron, 25% Percentile (iron; Day 8): 117.5; total body iron, 75% Percentile (iron; Day 8): 169.5; total body iron, Maximum (iron; Day 8): 202; total body iron, Mean (iron; Day 8): 138.6; total body iron, Median (iron; Day 8): 127.5; total body iron, Minimum (iron; Day 8): 74.16
2 | Clc1cccc(CNC2=Nc3ccccc3NC23CCNCC3)c1 [Lip-1, N-[(3-chlorophenyl)methyl]-spiro[piperidine-4,2′(1′H)-quinoxalin]-3′-amine] | significantly attenuated | completely suppressed | 630.3 | 732.2 | 851.8 | 698.5 | 711.4 | 590.5 | −32.28 | 12.74 | −123.1 | −51.79 | 726.5 | 892.4 | 1143 | 821.6 | 800.5 | 644 | −1.229 | −10.7 | areal density of iron with aging (iron): did not alter iron density; total body iron, 25% Percentile (iron; Day 4): 91.34; total body iron, 75% Percentile (iron; Day 4): 129.5; total body iron, Maximum (iron; Day 4): 148.6; total body iron, Mean (iron; Day 4): 113.3; total body iron, Median (iron; Day 4): 114.6; total body iron, Minimum (iron; Day 4): 71.51; total body iron, 25% Percentile (iron; Day 8): 128.9; total body iron, 75% Percentile (iron; Day 8): 189.6; total body iron, Maximum (iron; Day 8): 277.9; total body iron, Mean (iron; Day 8): 165.1; total body iron, Median (iron; Day 8): 157.2; total body iron, Minimum (iron; Day 8): 100
